Bounds are passed on as bounds.

Assay [1] concerns the target T1, Cyclin-dependent kinase 4/cyclin D1 (Homo sapiens, UniProt P11802). Nature of the assay: Inhibitory activity against Cyclin dependent kinase CDK4/D1. The class given is protein-complex assay.
In another assay the test system is HCT-116. Nature of the assay: Inhibition of colon carcinoma cell line HCT116 proliferation. The class given is functional, cell-based. Conditions: Homo sapiens.
For a further assay, the system named is SKUT-1A. The assay can be described thus: Inhibition of Rb negative Skut 1A cell proliferation. As to conditions: Homo sapiens. The class given is functional, cell-based.
Another assay deals with Skut1B. Nature of the assay: Inhibition of Rb positive Skut 1B cell proliferation. The assay is classed as functional, cell-based. Conditions: Homo sapiens.
In assay [2] the target is Cyclin-dependent kinase 1 (Homo sapiens) (UniProt P06493). The assay can be described thus: Inhibition of Cyclin dependent kinase CDK1/B.
Assay [3] has as its target Cyclin-dependent kinase 1/cyclin B (Homo sapiens, UniProt P06493). Nature of the assay: Inhibition of CDK1/cyclin B. The class given is protein-complex assay.
Assay [4] deals with Cyclin-dependent kinase 2/cyclin E (Homo sapiens, UniProt P24941). Nature of the assay: Inhibition of CDK2/cyclin E. The class given is protein-complex assay.
In assay [5] the target is T1, Cyclin-dependent kinase 4/cyclin D1. The assay can be described thus: Inhibition of Cyclin dependent kinase CDK4/cyclin D1. The assay is classed as protein-complex assay.

T1 sequence (P11802 whole entry): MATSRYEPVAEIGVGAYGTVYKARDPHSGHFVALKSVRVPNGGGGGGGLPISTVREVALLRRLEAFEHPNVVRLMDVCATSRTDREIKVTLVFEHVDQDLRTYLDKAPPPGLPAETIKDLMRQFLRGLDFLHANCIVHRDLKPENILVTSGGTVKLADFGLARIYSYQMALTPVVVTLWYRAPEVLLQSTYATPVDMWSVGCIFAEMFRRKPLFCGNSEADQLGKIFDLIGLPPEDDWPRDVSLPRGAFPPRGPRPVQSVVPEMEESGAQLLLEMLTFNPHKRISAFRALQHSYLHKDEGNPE
T1 sequence (P24385 whole entry, further chain): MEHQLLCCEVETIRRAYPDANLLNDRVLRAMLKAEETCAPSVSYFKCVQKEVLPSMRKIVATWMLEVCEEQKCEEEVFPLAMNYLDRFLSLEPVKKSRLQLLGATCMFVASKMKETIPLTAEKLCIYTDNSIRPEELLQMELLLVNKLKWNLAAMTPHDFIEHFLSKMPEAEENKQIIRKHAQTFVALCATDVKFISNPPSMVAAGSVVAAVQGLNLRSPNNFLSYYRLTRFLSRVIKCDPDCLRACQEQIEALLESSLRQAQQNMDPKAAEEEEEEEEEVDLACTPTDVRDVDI
Cyclin-dependent kinase 1 (Homo sapiens), sequence (P06493 whole entry, looked up): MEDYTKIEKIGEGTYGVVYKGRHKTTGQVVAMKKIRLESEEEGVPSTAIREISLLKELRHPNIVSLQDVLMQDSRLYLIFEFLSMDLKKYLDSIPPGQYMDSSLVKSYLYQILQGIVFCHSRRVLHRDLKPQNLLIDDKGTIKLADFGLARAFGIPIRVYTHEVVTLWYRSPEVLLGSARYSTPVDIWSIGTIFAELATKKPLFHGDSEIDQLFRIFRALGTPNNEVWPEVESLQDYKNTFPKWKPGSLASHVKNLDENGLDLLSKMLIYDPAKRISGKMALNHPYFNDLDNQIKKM

For orientation: IC50 means the concentration that gives 50% inhibition. As for `Oc1ccc2c(ccc3[nH]c4c(-c5ccccc5)cccc4c32)c1`, the IC50 in assay [1] worked out at 29 µM.
In assay [1], `c1ccc2c(c1)[nH]c1ccc3cnccc3c12` had a 50% inhibitory concentration (IC50) of 30 µM.
Regarding `c1ccc(-c2cccc3c2[nH]c2ccc4ccccc4c23)cc1`, the IC50 in assay [1] was greater than 341 µM.
On the same count and under the same terms, the figure for `COc1ccc2ccc3[nH]c4c(-c5ccccc5)cccc4c3c2c1` is greater than 309 µM; for `Oc1ccc2ccc3[nH]c4ccc(-c5ccccc5)cc4c3c2c1` it is 37.5 µM.
The compound `Oc1ccc2ccc3[nH]c4cccc(-c5ccccc5)c4c3c2c1` gave an IC50 in assay [1] of 83 µM.
For the compound `Nc1cccc(-c2cccc3c2[nH]c2ccc4ccc(O)cc4c23)c1`, the IC50 was determined as 2.3 µM in assay [1]; 9.6 µM in the assay on HCT-116; 11.6 µM in the assay on SKUT-1A; 4.1 µM in the assay with Skut1B; 74.5 µM in assay [2].
Compound `c1ccc2c(c1)[nH]c1ccc3ncccc3c12` registered an IC50 in assay [1] of 197 µM.
On the same count and under the same terms, the figure for `Oc1cccc2c1ccc1[nH]c3c(-c4ccccc4)cccc3c12` is 5.8 µM.
Take `Oc1cccc2ccc3[nH]c4c(-c5ccccc5)cccc4c3c12`: in assay [1], the IC50 was determined as 19.5 µM.
Consider `Oc1ccc(-c2cccc3c2[nH]c2ccc4ccc(O)cc4c23)cc1`, for which the IC50 turned out to be 1.9 µM in assay [1], 2.2 µM in the assay on HCT-116, 5.6 µM in the assay with SKUT-1A and 2.3 µM in the assay with Skut1B.
As to `Oc1ccc2ccc3[nH]c4cc(-c5ccccc5)ccc4c3c2c1`, the midpoint of inhibition in assay [1], the IC50, lay at 22 µM.
In turn, `Nc1ccc2ccc3[nH]c4c(-c5ccccc5)cccc4c3c2c1` returned an IC50 in assay [1] of 27.3 µM.
Take `c1cnc2c(c1)ccc1[nH]c3ccccc3c12`: in assay [1], the IC50 is 442 µM.
As to `Oc1ccc2ccc3[nH]c4c(-c5ccc(Cl)cc5)cccc4c3c2c1`, the IC50 in assay [1] stood at 9.9 µM; in the assay with HCT-116, 51 µM; in the assay with SKUT-1A, 36 µM; in the assay on Skut1B, 10.2 µM.
Regarding `Oc1ccc2ccc3[nH]c4c(-c5ccccc5)cccc4c3c2c1`, the IC50 in assay [3] amounted to 95 µM; in assay [4], 97 µM; in assay [5], 3.6 µM; in the assay with HCT-116, 10.2 µM; with SKUT-1A, 10.7 µM; with Skut1B it was 2.8 µM.
With `Oc1ccc2ccc3[nH]c4ccccc4c3c2c1`, the IC50 in assay [1] came out at 17.4 µM.
Same read-out and setting: the result for `c1ccc2c(c1)[nH]c1ccc3ccncc3c12` reads 159 µM; that for `[O-][n+]1ccc2ccc3[nH]c4ccccc4c3c2c1`, 605 µM.
On the same count and under the same terms, the result for `[O-][n+]1ccc2c(ccc3[nH]c4ccccc4c32)c1` reads 59 µM.

The record behind these values is ChEMBL document CHEMBL1133919, “Identification of selective inhibitors of cyclin dependent kinase 4” (Bioorg Med Chem Lett, 2001).
